Reference: patent US20070249670A1, “Glycogen Phosphorylase Inhibitor Compounds and Pharmaceutical Compositions Thereof” (SMITHKLINE BEECHAM CORPORATION, priority 2004, published 2007)
Where a name gives a salt, the structure may show the parent alone.

Target: T1, human liver glycogen phosphorylase a (HLGPa) (Homo sapiens, UniProt P06737)
T1 construct: creating a full-length cDNA fused at the 5′ end to codons for methionine-glycine-alanine-histidine; 6xHis tag (leader Met-Gly-Ala-His6-Gly-Gly) (N); made in house; host or cells: E. coli (bacterial expression plasmid pTXK1007LTev)
T1 sequence (P06737 2-847 limits assumed): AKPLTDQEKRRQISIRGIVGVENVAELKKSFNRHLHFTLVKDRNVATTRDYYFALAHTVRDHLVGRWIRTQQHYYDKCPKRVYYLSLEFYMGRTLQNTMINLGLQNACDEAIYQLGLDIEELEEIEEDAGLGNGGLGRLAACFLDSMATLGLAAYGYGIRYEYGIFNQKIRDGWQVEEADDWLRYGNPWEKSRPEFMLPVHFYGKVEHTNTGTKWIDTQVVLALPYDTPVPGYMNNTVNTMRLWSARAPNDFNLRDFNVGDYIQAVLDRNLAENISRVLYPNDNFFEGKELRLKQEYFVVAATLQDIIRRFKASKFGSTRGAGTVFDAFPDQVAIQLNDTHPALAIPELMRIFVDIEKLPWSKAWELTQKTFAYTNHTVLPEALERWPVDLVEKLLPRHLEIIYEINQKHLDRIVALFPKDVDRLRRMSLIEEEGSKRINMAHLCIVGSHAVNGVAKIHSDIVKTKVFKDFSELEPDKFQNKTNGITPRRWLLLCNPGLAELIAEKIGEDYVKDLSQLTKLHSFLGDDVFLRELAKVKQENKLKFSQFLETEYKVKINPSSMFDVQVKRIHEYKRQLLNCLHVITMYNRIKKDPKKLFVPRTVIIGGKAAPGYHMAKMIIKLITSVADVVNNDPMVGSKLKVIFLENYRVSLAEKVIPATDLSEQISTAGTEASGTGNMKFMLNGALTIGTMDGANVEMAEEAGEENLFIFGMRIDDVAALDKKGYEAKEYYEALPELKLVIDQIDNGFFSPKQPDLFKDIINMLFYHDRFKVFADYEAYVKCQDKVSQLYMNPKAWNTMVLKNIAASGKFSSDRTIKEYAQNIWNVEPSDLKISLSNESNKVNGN
Experiment: Human liver glycogen phosphorylase a enzymatic activity assay (coupled, fluorescent resorufin readout, with and without 10 mM glucose)
Type: biochemical
Conditions: human liver glycogen phosphorylase a enzymatic activity assay

Row | SMILES | IC50 [µM]
1 | Cc1ccccc1NC(=O)Nc1cc2ccccc2cc1C(=O)N[C@@H](Cc1cnc[nH]1)C(=O)O [Example 44, N-[3-({[(2-methylphenyl)amino]carbonyl}amino)-2-naphthoyl]-L-histidine trifluoroacetate] | 5.18
2 | Cc1ccccc1NC(=O)Nc1cc2ccccc2cc1C(=O)N[C@@H](Cc1ccccc1)C(=O)O [Example 45, N-[3-({[(2-methylphenyl)amino]carbonyl}amino)-2-naphthoyl]-L-phenylalanine] | 16.9
3 | Cc1ccccc1NC(=O)Nc1cc2ccccc2cc1C(=O)N[C@@H](Cc1c[nH]c2ccccc12)C(=O)O [Example 46, N-[3-({[(2-methylphenyl)amino]carbonyl}amino)-2-naphthoyl]-L-tryptophan] | 3.73
4 | Cc1cccc(C)c1NC(=O)Nc1cc2ccccc2cc1C(=O)N[C@@H](CCCCN)C(=O)O [Example 47, N-[3-({[(2,6-dimethylphenyl)amino]carbonyl}amino)-2-naphthoyl]-L-lysine trifluoroacetate] | 8.06
5 | Cc1cccc(C)c1NC(=O)Nc1cc2ccccc2cc1C(=O)N[C@@H](CCC(=O)O)C(=O)O [Example 48, N-[3-({[(2,6-dimethylphenyl)amino]carbonyl}amino)-2-naphthoyl]-L-glutamic acid] | 1.73
6 | CSCC[C@H](NC(=O)c1cc2ccccc2cc1NC(=O)Nc1c(C)cccc1C)C(=O)O [Example 49, N-[3-({[(2,6-dimethylphenyl)amino]carbonyl}amino)-2-naphthoyl]-L-methionine] | 1.67
7 | Cc1cccc(C)c1NC(=O)Nc1cc2ccccc2cc1C(=O)N[C@@H](Cc1cnc[nH]1)C(=O)O [Example 50, N-[3-({[(2,6-dimethylphenyl)amino]carbonyl}amino)-2-naphthoyl]-L-histidine trifluoroacetate] | 2.3
8 | Cc1cccc(C)c1NC(=O)Nc1cc2ccccc2cc1C(=O)N[C@@H](Cc1ccccc1)C(=O)O [Example 51, N-[3-({[(2,6-dimethylphenyl)amino]carbonyl}amino)-2-naphthoyl]-L-phenylalanine] | 0.68
9 | Cc1cccc(C)c1NC(=O)Nc1cc2ccccc2cc1C(=O)N[C@@H](CCCNC(=N)N)C(=O)O [Example 52, N-[3-({[(2,6-dimethylphenyl)amino]carbonyl}amino)-2-naphthoyl]-L-arginine] | 4.64
10 | Cc1cccc(C)c1NC(=O)Nc1cc2ccccc2cc1C(=O)N[C@@H](Cc1ccc(O)cc1)C(=O)O [Example 53, N-[3-({[(2,6-dimethylphenyl)amino]carbonyl}amino)-2-naphthoyl]-L-tyrosine] | 0.36
11 | Cc1cccc(C)c1NC(=O)Nc1cc2ccccc2cc1C(=O)N[C@@H](Cc1c[nH]c2ccccc12)C(=O)O [Example 54, N-[3-({[(2,6-dimethylphenyl)amino]carbonyl}amino)-2-naphthoyl]-L-tryptophan trifluoroacetate] | 0.51
12 | O=C(O)CC[C@H](NC(=O)c1cc2ccccc2cc1NC(=O)Nc1ccccc1Cl)C(=O)O [Example 55, N-[3-({[(2-chlorophenyl)amino]carbonyl}amino)-2-naphthoyl]-L-glutamic acid] | 10.4
13 | O=C(Nc1ccccc1Cl)Nc1cc2ccccc2cc1C(=O)N[C@@H](Cc1cnc[nH]1)C(=O)O [Example 56, N-[3-({[(2-chlorophenyl)amino]carbonyl}amino)-2-naphthoyl]-L-histidine trifluoroacetate] | 3.08
14 | O=C(Nc1ccccc1Cl)Nc1cc2ccccc2cc1C(=O)N[C@@H](Cc1ccccc1)C(=O)O [Example 57, N-[3-({[(2-chlorophenyl)amino]carbonyl}amino)-2-naphthoyl]-L-phenylalanine] | 5.21
15 | O=C(Nc1ccccc1Cl)Nc1cc2ccccc2cc1C(=O)N[C@@H](Cc1c[nH]c2ccccc12)C(=O)O [Example 58, N-[3-({[(2-chlorophenyl)amino]carbonyl}amino)-2-naphthoyl]-L-tryptophan trifluoroacetate] | 4.7
16 | Cc1cccc(Cl)c1NC(=O)Nc1cc2ccccc2cc1C(=O)N[C@@H](CCCCN)C(=O)O [Example 59, N-[3-({[(2-chloro-6-methylphenyl)amino]carbonyl}amino)-2-naphthoyl]-L-lysine trifluoroacetate] | 2.99

Row | SMILES | IC50 [µM]
17 | CSCC[C@H](NC(=O)c1cc2ccccc2cc1NC(=O)Nc1c(C)cccc1Cl)C(=O)O [Example 60, N-[3-({[(2-chloro-6-methylphenyl)amino]carbonyl}amino)-2-naphthoyl]-L-methionine] | 0.64
18 | Cc1cccc(Cl)c1NC(=O)Nc1cc2ccccc2cc1C(=O)N[C@@H](Cc1cnc[nH]1)C(=O)O [Example 61, N-[3-({[(2-chloro-6-methylphenyl)amino]carbonyl}amino)-2-naphthoyl]-L-histidine trifluoroacetate] | 0.45
19 | Cc1cccc(Cl)c1NC(=O)Nc1cc2ccccc2cc1C(=O)N[C@@H](Cc1ccccc1)C(=O)O [Example 62, N-[3-({[(2-chloro-6-methylphenyl)amino]carbonyl}amino)-2-naphthoyl]-L-phenylalanine] | 0.26
20 | Cc1cccc(Cl)c1NC(=O)Nc1cc2ccccc2cc1C(=O)N[C@@H](CCCNC(=N)N)C(=O)O [Example 63, N-[3-({[(2-chloro-6-methylphenyl)amino]carbonyl}amino)-2-naphthoyl]-L-arginine] | 2.73
21 | Cc1cccc(Cl)c1NC(=O)Nc1cc2ccccc2cc1C(=O)N[C@@H](Cc1ccc(O)cc1)C(=O)O [Example 64, N-[3-({[(2-chloro-6-methylphenyl)amino]carbonyl}amino)-2-naphthoyl]-L-tyrosine] | 0.45
22 | Cc1cccc(Cl)c1NC(=O)Nc1cc2ccccc2cc1C(=O)N[C@@H](Cc1c[nH]c2ccccc12)C(=O)O [Example 65, N-[3-({[(2-chloro-6-methylphenyl)amino]carbonyl}amino)-2-naphthoyl]-L-tryptophan trifluoroacetate] | 0.27
23 | Cc1cccc(Cl)c1NC(=O)Nc1cc(F)c(F)cc1C(=O)N[C@@H](CC(=O)O)C(=O)O [Example 66, N-[2-({[(2-chloro-6-methylphenyl)amino]carbonyl}amino)-4,5-difluorobenzoyl]-L-aspartic acid] | 7.16
24 | COc1cc(NC(=O)Nc2c(C)cccc2Cl)c(C(=O)N[C@@H](CC(=O)O)C(=O)O)cc1OC [Example 67, N-[2-({[(2-chloro-6-methylphenyl)amino]carbonyl}amino)-4,5-dimethoxybenzoyl]-L-aspartic acid] | 19.8
25 | Cc1cccc(Cl)c1NC(=O)Nc1cc(F)c(F)cc1C(=O)N[C@@H](CC(C)C)C(=O)O [Example 68, N-[2-({[(2-chloro-6-methylphenyl)amino]carbonyl}amino)-4,5-difluorobenzoyl]-L-leucine] | 7.54
26 | COc1cc(NC(=O)Nc2c(C)cccc2Cl)c(C(=O)N[C@@H](CC(C)C)C(=O)O)cc1OC [Example 69, N-[2-({[(2-chloro-6-methylphenyl)amino]carbonyl}amino)-4,5-dimethoxybenzoyl]-L-leucine] | 13.8
27 | CC[C@H](C)[C@H](NC(=O)c1cc(F)c(F)cc1NC(=O)Nc1c(C)cccc1Cl)C(=O)O [Example 70, N-[2-({[(2-chloro-6-methylphenyl)amino]carbonyl}amino)-4,5-difluorobenzoyl]-L-isoleucine] | 5.97
28 | CC[C@H](C)[C@H](NC(=O)c1cc(OC)c(OC)cc1NC(=O)Nc1c(C)cccc1Cl)C(=O)O [Example 71, N-[2-({[(2-chloro-6-methylphenyl)amino]carbonyl}amino)-4,5-dimethoxybenzoyl]-L-isoleucine] | 22.3
29 | Cc1cccc(Cl)c1NC(=O)Nc1cc(F)c(F)cc1C(=O)N[C@@H](Cc1ccccc1)C(=O)O [Example 72, N-[2-({[(2-chloro-6-methylphenyl)amino]carbonyl}amino)-4,5-difluorobenzoyl]-L-phenylalanine] | 10.9
30 | COc1cc(NC(=O)Nc2c(C)cccc2Cl)c(C(=O)N[C@@H](Cc2ccccc2)C(=O)O)cc1OC [Example 73, N-[2-({[(2-chloro-6-methylphenyl)amino]carbonyl}amino)-4,5-dimethoxybenzoyl]-L-phenylalanine] | 11.6
31 | Cc1cccc(Cl)c1NC(=O)Nc1cc(F)c(F)cc1C(=O)N[C@@H](Cc1c[nH]c2ccccc12)C(=O)O [Example 74, N-[2-({[(2-chloro-6-methylphenyl)amino]carbonyl}amino)-4,5-difluorobenzoyl]-L-tryptophan trifluoroacetate] | 6.58
32 | COc1cc(NC(=O)Nc2c(C)cccc2Cl)c(C(=O)N[C@@H](Cc2c[nH]c3ccccc23)C(=O)O)cc1OC [Example 75, N-[2-({[(2-chloro-6-methylphenyl)amino]carbonyl}amino)-4,5-dimethoxybenzoyl]-L-tryptophan trifluoroacetate] | 0.76
